Experimental data taken from patent US10975116B2, “Methods of treating and preventing gastrointestinal motility disorders using aminosterols” (Enterin, Inc., priority 2013, dated 2021).
Entries after “also recorded” stand apart in the source; their conditions may differ.

How the values were obtained:
[1] = test system: intrinsic primary afferent neurons (IPANs) of the colon; test: Patch-clamp of IPANs of the colon, squalamine applied to lumen, intact epithelium; format: cell-based, mouse; conditions: 30 μM, brief puff onto lumen/epithelium
From the text: In this experiment the outer adventitial layer of the mouse colon is peeled away exposing the IPANs. Individual IPANs within the myenteric plexus of the wall of the colon are patched using a patch-clamp apparatus. These cells represent the major neuronal population that communicate sensory data from the gut. They synapse with the various nerve networks within the gut that influence muscle and secretory activity, as well as connecting with vagal nerve endings. Administration of squalamine at 30 μM to the lumen (applied via a 50 ms “puff” of solution) leads to a very sustained (10 min) burst of electrical activity (FIG. 3).

mesenteric nerve = test: Mesenteric nerve multiunit recording after intraluminal squalamine in colon; format: in vivo, mouse
From the text: Under appropriate and approved anesthesia, the distal colon of a mouse was externalized from the abdomen, along with the mesentary. The mesenteric blood vessels and lymphatics were carefully dissected from the mesenteric nerve, a structure that contains both the vagus (efferent and afferent) and spinal afferents. The nerve was cut, and the free end (which receives signals from the gut) was introduced into a capillary housing a silver electrode, along with the appropriate electronics required to detect and amplify weak electrical signals pulsing from the gut through the mesenteric nerve. […] Concentrations of 3, 10, 30 and 100 μM squalamine were evaluated. Responses to squalamine application were discernible at 30 μM but robust and reproducible responses were first evident at 100 μM. […] Paired experiments were comparisons of average discharge rates of a control recording period with a three-minute period during the peak response to squalamine. Statistical comparisons were made using paired t-tests. Squalamine increased the background firing rate from (mean±SD) 2.0±1.2 to 5.2±3.1 Hz (P=0.03). The latency to the onset of the firing increase was 4.4±4.1 min, while the latency to peak of the firing rate increase 12±7.5 min (FIG. 1).

[2] = test system: embryonal rhabdomyosarcoma; test: Oral squalamine in sarcoma with dose finding by GI response, single subject; format: in vivo, human
Procedure: A person was seen because of the recurrence of an embryonal rhabdomyosarcoma. They noticed a mass in their left groin. […] The mass was surgically excised. The patient was then treated with a cocktail of chemotherapeutic agents. Several months later the mass was seen to recur in the left groin. The mass was again excised. Several months later, a tumor was gain noted in the groin, with a large mass present in the left lung.
At 300 mg daily, a clear effect was noted, that being mild nausea, 2 hours after dosing, followed by a bowel movement later in the day.

GLP-1 = GLP-1 release into the blood stream after oral squalamine and lipid/carbohydrate meal (ELISA); format: in vivo, human
Procedure: Enteroendocrine cells, which contain entreric hormones, are known to respond to a variety of stimuli they contact in the intestinal lumen, and release hormones into the submucosa and subsequently into the bloodstream. In particular, GLP-1, the product of the L-cell, is known to have motility effects on the small intestine that resemble those observed after oral administration of squalamine. In this example, a lipid/carbohydrate meal was administered which is known to provoke the release of GLP-1 into the bloodstream. The GLP-1 response of the GI tract to the meal was compared in the presence or absence of squalamine, with blood levels of GLP-1 measured using an ELISA based immunoassay.
• 1. Subject (BMI: […], no medical illness) was fasted overnight • 2. IV catheter 18 gauge implanted in R […] fossa • 3. Blood samples drawn at 9:30 A, 11 A, 11:30 A, 12:30 P, 1:30 P, 2 P, 2:30, 3, 3:30, 4:30, 5:30 • 4. Empty capsule and water at 10:30 A • 5. Lipid/carbohydrate meal (2 slices of white bread, each with 5.5 gms butter) at 2 P • 6. Blood samples: 2 ml into Becton-Dickenson Protease-inhibited Biomarker tubes; 3 ml into standard red top blood collection tubes. • 7. All samples were immediately spun at 3000 rpm×15 and serum or plasma aliquotted into 1.5 ml eppendorfs and then stored at −80° C. Squalamine Response • 1. Subject rested 3 days and re-evaluated 4 days after the Control response • 2. Fasted overnight • 3. IV catheter implanted • 4. Samples drawn at 10, 11, 11:30, 12:30, 1:30, 2:30, 3, 3:30, 4:30, 5:30 • 5. Squalamine capsule, 200 mg at 10:30 A • 6. Bread and butter, 2 P • 7. Blood samples collected and processed as in the Control study
GLP-1 analyses (Total immunoreactive GLP-1): A Millipore ELISA kit was used (Cat #EZGLP1T-36K).

[3] = test system: intrinsic primary afferent neurons (IPANs) of the colon; test: Patch-clamp of IPANs of the colon, epithelial lining peeled away; format: cell-based, mouse
Procedure: In this Example the same procedure as that described in Example 12 was followed except that the epithelial lining of the colon was peeled away prior to application of squalamine to the lumen. Signals from individual IPANs were recorded. Concentrations of squalamine as low as 1 uM could now stimulate a robust response, similar quantitatively (and qualitatively) to concentrations 30-100 fold higher, when an intact epithelium was present.

endometrial cancer = test: Oral squalamine in endometrial cancer, single subject; format: in vivo, human
Procedure: A person presented with abdominal discomfort and the presence of a palpable abdominal mass. […] Surgical removal of the uterus and ovaries was followed by chemotherapy. Subsequently, a large tumor adherent to the distal colon was discovered, along with additional nodes. A colonic resection was performed along with local radiation to the peritoneum.
The individual decided to stop all chemotherapy due to progression of the cancer and the adverse reactions previously experienced. The subject began oral squalamine in capsule form in August 2012. […] The dose of squalamine was raised to 100 mg/day in two divided doses. In October 2013, the tumor adjacent to the ureter was irradiated. […] The individual remains on squalamine 100 mg/day. They are in otherwise excellent health.

NHE-3 transporter = conditions: electrostatic mechanism, epithelial cell; cited from earlier work
[4] = 100 μM intraluminal, 5 experiments
[5] = intraluminal, 3, 10, 30 and 100 μM evaluated

Substance: squalamine
- duration of burst of electrical activity / action potentials [1]: 10 min
- latency to peak of the firing rate increase (mesenteric nerve; [4]): 12 ± 7.5 min
- latency to the onset of the firing increase (mesenteric nerve; [4]): 4.4 ± 4.1 min
- mesenteric nerve multiunit firing rate at peak response (mean±SD) (mesenteric nerve; 100 μM intraluminal, 5 experiments, background 2.0±1.2 Hz, P=0.03): 5.2±3.1 Hz
- effect on mesenteric nerve firing frequency (FIGS. 1A-1C) (mesenteric nerve; intraluminal squalamine): increases mesenteric nerve firing frequency
- concentration at which responses were discernible (mesenteric nerve; [5]): 30 µM
- concentration at which robust and reproducible responses were first evident (mesenteric nerve; [5]): 100 µM
- GI response ([2]; 100 mg capsules for several days): without any noticeable GI symptoms
- GI response ([2]; 200 mg daily): without any GI response
- GI response ([2]; 300 mg daily): mild nausea
- mild nausea, time after dosing ([2]; 300 mg daily): 2 h
- tumor status ([2]; 2 months post surgery, dosing continued): no evidence of pulmonary tumors nor evidence of recurrence of any soft tissue tumor in the groin
- finding in surgically removed lung tumor ([2]; 3 weeks after initiation of dosing): massive internal hemorrhage due to blood vessel damage
- Squalamine Response: Clinical (GLP-1; 200 mg capsule at 10:30 A, light headedness 11 A-12:15, nausea 1:45, diarrhea 2 P, 2:20, 2:36, 3:15): Episodes of light headedness; also recorded: Episode of mild nausea; also recorded: Passage of watery diarrhea
- effect on the release of GLP-1 from the small intestine (GLP-1; 200 mg oral versus empty capsule, same subject): No significant effect
- GLP-1 blood level (GLP-1; blood sample at 1:30, 200 mg capsule at 10:30 A, meal at 2 P): 9 pM
- GLP-1 blood level (GLP-1; blood sample at 2:30, 200 mg capsule at 10:30 A, meal at 2 P): 8 pM
- GLP-1 blood level (GLP-1; blood sample at 3:00, 200 mg capsule at 10:30 A, meal at 2 P): 8 pM
- GLP-1 blood level (GLP-1; blood sample at 3:30, 200 mg capsule at 10:30 A, meal at 2 P): 6 pM
- GLP-1 blood level (GLP-1; blood sample at 4:30, 200 mg capsule at 10:30 A, meal at 2 P): 5 pM
- GLP-1 blood level (GLP-1; blood sample at 5:30, 200 mg capsule at 10:30 A, meal at 2 P): 3 pM
- GLP-1 blood level (GLP-1; blood sample at 10 (before 200 mg capsule at 10:30 A), total immunoreactive GLP-1): 6 pM
- GLP-1 blood level (GLP-1; blood sample at 11:30, 200 mg capsule at 10:30 A, meal at 2 P): 4 pM
- GLP-1 blood level (GLP-1; blood sample at 11, 200 mg capsule at 10:30 A, meal at 2 P): 5 pM
- GLP-1 blood level (GLP-1; blood sample at 12:30, 200 mg capsule at 10:30 A, meal at 2 P): 10 pM
- lowest concentration stimulating a robust IPAN response ([3]; epithelial lining peeled away): 1 µM
- fold higher concentrations needed for similar response when an intact epithelium was present ([3]; intact versus stripped epithelium): 30-100 fold
- PET/CT, metastases (endometrial cancer; 100 mg/day in two divided doses, February 2013 as printed): no additional metasteses were observed
- tumor status (endometrial cancer; July 2013, before dose raised to 100 mg/day): a small tumor appeared adjacent to the right ureter, and a second attached to the left descending colon
- PET/CT imaging (endometrial cancer; oral capsules from August 2012, by March 2013): no evidence of malignancy was visible
- effect on NHE-3 transporter (NHE-3 transporter): inhibits the NHE-3 transporter
